Values quoted from earlier work, collected in US20200046831A1, “NANOEMULSION COMPRISING IMIDAZOQUINOLINE-BASED MATERIAL AND USE THEREOF” (DANDI BIOSCIENCE INC., priority 2017, published 2020).

CC(C)Cn1cnc2c(N)nc3ccccc3c21 [imiqimod (R837), imiquimod]
solubility in organic solvents: not dissolved in most organic solvents except for DMSO
